# Assay results taken from patent US20030104507A1, “Method for detection of ATP” (priority 2001, published 2003).
# Columns and labels:
# LucPpe2m146 = assay: Duration of luminescence (signal stability) and effects of media and sera, DTAB, ± pyrophosphate; format: biochemical, Photuris pennsylvanica
# Description: In some embodiments, the compositions of the invention were added to intact cells to lyse them, and then ATP detected. In other embodiments, conditioned culture media were themselves assayed for ATP. However, the various components of media, such as buffers, sugars, amino acids, pH indicators, salts, etc., as well as the various factors found in serum (equine, bovine, etc.) may inhibit luciferase activity.
# The luciferase-luciferin reaction was initiated by combining 100 μl of the reagent composition composition with 100 μl cell media with serum, varying final concentrations of DTAB (as indicated below in Table Q) and 1.0 μM ATP was added to each reaction plus or minus 10 μM sodium pyrophosphate in wells of a 96-well microtiter luminometer plate; each experimental condition was prepared in triplicate. At various times after initiating the reaction, rlu values were recorded using an Orion microplate luminometer (Berthold Detection Systems; Pforzheim, Germany).
# [1] = Precipitation of detergent in reagent composition samples; format: physicochemical
smiles,measurement,setting,value
"CCCCCCCCCCCC[N+](C)(C)C.[Br-] [DTAB, dodecyltrimethylammonium bromide]",Average Relative Light Units,"LucPpe2m146; 0.50% DTAB, DMEM + 10% FBS + ATP, 0 min",204771 relative light units
same,Average Relative Light Units,"LucPpe2m146; 0.50% DTAB, DMEM + 10% FBS + ATP, 10 min",223493 relative light units
same,Average Relative Light Units,"LucPpe2m146; 0.50% DTAB, DMEM + 10% FBS + ATP, 30 min",187757 relative light units
same,Average Relative Light Units,"LucPpe2m146; 0.50% DTAB, DMEM + 10% FBS + ATP, 65 min",146766 relative light units
same,Average Relative Light Units,"LucPpe2m146; 0.50% DTAB, DMEM + 10% FBS + ATP, 120 min",104150 relative light units
same,Average Relative Light Units,"LucPpe2m146; 0.50% DTAB, DMEM + 10% FBS + ATP, 180 min",72609 relative light units
same,Average Relative Light Units,"LucPpe2m146; 0.50% DTAB, DMEM + 10% FBS + ATP, 325 min",32307 relative light units
same,Average Relative Light Units,"LucPpe2m146; 0.50% DTAB, F12/DME + 10% FBS + ATP, 0 min",13467 relative light units
same,Average Relative Light Units,"LucPpe2m146; 0.50% DTAB, F12/DME + 10% FBS + ATP, 10 min",13311 relative light units
same,Average Relative Light Units,"LucPpe2m146; 0.50% DTAB, F12/DME + 10% FBS + ATP, 30 min",11348 relative light units
same,Average Relative Light Units,"LucPpe2m146; 0.50% DTAB, F12/DME + 10% FBS + ATP, 65 min",9953 relative light units
same,Average Relative Light Units,"LucPpe2m146; 0.50% DTAB, F12/DME + 10% FBS + ATP, 120 min",8127 relative light units
same,Average Relative Light Units,"LucPpe2m146; 0.50% DTAB, F12/DME + 10% FBS + ATP, 180 min",6538 relative light units
same,Average Relative Light Units,"LucPpe2m146; 0.50% DTAB, F12/DME + 10% FBS + ATP, 325 min",3793 relative light units
same,Average Relative Light Units,"LucPpe2m146; 0.50% DTAB, F12/DME + 10% HS + ATP, 0 min",88405 relative light units
same,Average Relative Light Units,"LucPpe2m146; 0.50% DTAB, F12/DME + 10% HS + ATP, 10 min",82645 relative light units
same,Average Relative Light Units,"LucPpe2m146; 0.50% DTAB, F12/DME + 10% HS + ATP, 30 min",70746 relative light units
same,Average Relative Light Units,"LucPpe2m146; 0.50% DTAB, F12/DME + 10% HS + ATP, 65 min",58749 relative light units
same,Average Relative Light Units,"LucPpe2m146; 0.50% DTAB, F12/DME + 10% HS + ATP, 120 min",44677 relative light units
same,Average Relative Light Units,"LucPpe2m146; 0.50% DTAB, F12/DME + 10% HS + ATP, 180 min",33353 relative light units
same,Average Relative Light Units,"LucPpe2m146; 0.50% DTAB, F12/DME + 10% HS + ATP, 325 min",17414 relative light units
same,Average Relative Light Units,"LucPpe2m146; 0.50% DTAB, RPMI + 10% FBS + ATP, 0 min",44179 relative light units
same,Average Relative Light Units,"LucPpe2m146; 0.50% DTAB, RPMI + 10% FBS + ATP, 10 min",43664 relative light units
same,Average Relative Light Units,"LucPpe2m146; 0.50% DTAB, RPMI + 10% FBS + ATP, 30 min",35909 relative light units
same,Average Relative Light Units,"LucPpe2m146; 0.50% DTAB, RPMI + 10% FBS + ATP, 65 min",26501 relative light units
same,Average Relative Light Units,"LucPpe2m146; 0.50% DTAB, RPMI + 10% FBS + ATP, 120 min",16951 relative light units
same,Average Relative Light Units,"LucPpe2m146; 0.50% DTAB, RPMI + 10% FBS + ATP, 180 min",10153 relative light units
same,Average Relative Light Units,"LucPpe2m146; 0.50% DTAB, RPMI + 10% FBS + ATP, 325 min",3268 relative light units
same,Average Relative Light Units,"LucPpe2m146; 0.55% DTAB, DMEM + 10% FBS + ATP, 0 min",52107 relative light units
same,Average Relative Light Units,"LucPpe2m146; 0.55% DTAB, DMEM + 10% FBS + ATP, 10 min",59799 relative light units
same,Average Relative Light Units,"LucPpe2m146; 0.55% DTAB, DMEM + 10% FBS + ATP, 30 min",51285 relative light units
same,Average Relative Light Units,"LucPpe2m146; 0.55% DTAB, DMEM + 10% FBS + ATP, 65 min",42155 relative light units
same,Average Relative Light Units,"LucPpe2m146; 0.55% DTAB, DMEM + 10% FBS + ATP, 120 min",32891 relative light units
same,Average Relative Light Units,"LucPpe2m146; 0.55% DTAB, DMEM + 10% FBS + ATP, 180 min",24137 relative light units
same,Average Relative Light Units,"LucPpe2m146; 0.55% DTAB, DMEM + 10% FBS + ATP, 325 min",12031 relative light units
same,Average Relative Light Units,"LucPpe2m146; 0.55% DTAB, F12/DME + 10% FBS + ATP, 0 min",6847 relative light units
same,Average Relative Light Units,"LucPpe2m146; 0.55% DTAB, F12/DME + 10% FBS + ATP, 10 min",6952 relative light units
same,Average Relative Light Units,"LucPpe2m146; 0.55% DTAB, F12/DME + 10% FBS + ATP, 30 min",6013 relative light units
same,Average Relative Light Units,"LucPpe2m146; 0.55% DTAB, F12/DME + 10% FBS + ATP, 65 min",5581 relative light units
same,Average Relative Light Units,"LucPpe2m146; 0.55% DTAB, F12/DME + 10% FBS + ATP, 120 min",4891 relative light units
same,Average Relative Light Units,"LucPpe2m146; 0.55% DTAB, F12/DME + 10% FBS + ATP, 180 min",4329 relative light units
same,Average Relative Light Units,"LucPpe2m146; 0.55% DTAB, F12/DME + 10% FBS + ATP, 325 min",3207 relative light units
same,Average Relative Light Units,"LucPpe2m146; 0.55% DTAB, F12/DME + 10% HS + ATP, 0 min",36615 relative light units
same,Average Relative Light Units,"LucPpe2m146; 0.55% DTAB, F12/DME + 10% HS + ATP, 10 min",36669 relative light units
same,Average Relative Light Units,"LucPpe2m146; 0.55% DTAB, F12/DME + 10% HS + ATP, 30 min",31348 relative light units
same,Average Relative Light Units,"LucPpe2m146; 0.55% DTAB, F12/DME + 10% HS + ATP, 65 min",27979 relative light units
same,Average Relative Light Units,"LucPpe2m146; 0.55% DTAB, F12/DME + 10% HS + ATP, 120 min",23778 relative light units
same,Average Relative Light Units,"LucPpe2m146; 0.55% DTAB, F12/DME + 10% HS + ATP, 180 min",19955 relative light units
same,Average Relative Light Units,"LucPpe2m146; 0.55% DTAB, F12/DME + 10% HS + ATP, 325 min",13539 relative light units
same,Average Relative Light Units,"LucPpe2m146; 0.55% DTAB, RPMI + 10% FBS + ATP, 0 min",21388 relative light units
same,Average Relative Light Units,"LucPpe2m146; 0.55% DTAB, RPMI + 10% FBS + ATP, 10 min",22863 relative light units
same,Average Relative Light Units,"LucPpe2m146; 0.55% DTAB, RPMI + 10% FBS + ATP, 30 min",19631 relative light units
same,Average Relative Light Units,"LucPpe2m146; 0.55% DTAB, RPMI + 10% FBS + ATP, 65 min",16848 relative light units
same,Average Relative Light Units,"LucPpe2m146; 0.55% DTAB, RPMI + 10% FBS + ATP, 120 min",12968 relative light units
same,Average Relative Light Units,"LucPpe2m146; 0.55% DTAB, RPMI + 10% FBS + ATP, 180 min",9661 relative light units
same,Average Relative Light Units,"LucPpe2m146; 0.55% DTAB, RPMI + 10% FBS + ATP, 325 min",5080 relative light units
"C[C@H](CCC(=O)[O-])[C@H]1CC[C@H]2[C@@H]3CC[C@@H]4C[C@H](O)CC[C@]4(C)[C@H]3C[C@H](O)[C@]12C.[Na+] [Deoxycholate, sodium deoxycholate]",precipitation in the samples,[1]; 0.1% deoxycholate,slight precipitation
same,precipitation in the samples,[1]; 0.5% deoxycholate,substantial precipitation
